Tests used:
PPAR alpha = molecular target: T1, PPAR alpha (Homo sapiens, UniProt Q07869); assay: Transfection assay for PPAR receptors (GAL4-LBD luciferase reporter), PPAR alpha; type: cell-based; details: Table 1; HEK293 cells co-transfected with PPAR LBD-GAL4 and GAL4 (UAS) luciferase reporter, 18–24 hrs
T1 construct: expressed in transfected cells; host or cells: HEK293
T1 sequence (Q07869 239-466 limits assumed): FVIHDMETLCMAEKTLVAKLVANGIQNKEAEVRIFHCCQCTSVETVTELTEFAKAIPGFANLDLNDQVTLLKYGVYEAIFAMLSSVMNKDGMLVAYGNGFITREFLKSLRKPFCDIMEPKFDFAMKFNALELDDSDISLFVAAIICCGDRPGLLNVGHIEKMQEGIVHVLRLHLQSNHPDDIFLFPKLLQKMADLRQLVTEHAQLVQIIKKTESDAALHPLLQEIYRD
Protocol: (§1) Transfection Assay Method for PPAR Receptors
(§2) HEK293 cells were grown in DMEM/F12 medium supplemented with 10% FBS and glutamine (Invitrogen) and incubated in a 5% CO2 incubator at 37° C. The cells were co-transfected using DMRIE-C reagent (Invitrogen) in serum free medium (Opti-MEM, Invitrogen) with two mammalian expression plasmids, one containing the DNA sequence coding for the ligand binding domains of either PPARαg or d fused to the yeast GAL4 DNA binding domain and the other containing the promoter sequence of the yeast GAL4 (UAS) fused to the firefly luciferase cDNA reporter. The next day, the medium was changed to DMEM/F12 medium supplemented with 5% charcoal treated serum (Hyclone) and glutamine. After 6 hrs the cells were trypsinized and seeded at a density of 50,000 cells/well into 96 well plates and incubated overnight as above. The cells were then treated with -test compounds or vehicle and incubated for 18–24 hrs as above. Luciferase reporter activity was measured using the Steady-Glo Luciferase Assay Kit from Promega. DMRIE-C Reagent was purchased from GIBCO Cat. No.10459-014. OPTI-MEM I Reduced Serum Medium was purchased from GIBCO (Cat. No. 31985). Steady-Glo Luciferase Assay Kit was purchased from Promega (Part#E254B).
A variety of example compounds have been made and tested, with a range of in vitro results. Below are representative compounds and data; in some cases, where multiple EC50's are shown, multiple measurements were taken. Naturally, different compounds in Formula (I) may have not have activities identical to any one compound below.

PPAR delta = molecular target: T2, PPAR delta (Homo sapiens, UniProt Q03181); assay: Transfection assay for PPAR receptors (GAL4-LBD luciferase reporter), PPAR delta; type: cell-based; details: Table 1; HEK293 cells co-transfected with PPAR LBD-GAL4 and GAL4 (UAS) luciferase reporter, 18–24 hrs
T2 construct: expressed in transfected cells; host or cells: HEK293
T2 sequence (Q03181 211-439 limits assumed): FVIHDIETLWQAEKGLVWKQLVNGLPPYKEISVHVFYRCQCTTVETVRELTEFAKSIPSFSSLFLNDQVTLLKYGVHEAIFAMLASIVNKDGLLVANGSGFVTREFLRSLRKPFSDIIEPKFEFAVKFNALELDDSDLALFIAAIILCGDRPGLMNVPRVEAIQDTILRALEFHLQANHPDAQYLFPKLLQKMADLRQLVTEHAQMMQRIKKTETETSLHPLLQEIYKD
Protocol: as §1
as §2, with “OPTI-MEM I Reduced Serum Medium was purchased from GIBCO (Cat. No. 31985).” left out

PPAR gamma = molecular target: T3, PPAR gamma (Homo sapiens, UniProt P37231); assay: Transfection assay for PPAR receptors (GAL4-LBD luciferase reporter), PPAR gamma; type: cell-based; details: Table 1; HEK293 cells co-transfected with PPAR LBD-GAL4 and GAL4 (UAS) luciferase reporter, 18–24 hrs
T3 construct: expressed in transfected cells; host or cells: HEK293
T3 sequence (P37231 238-503 limits assumed): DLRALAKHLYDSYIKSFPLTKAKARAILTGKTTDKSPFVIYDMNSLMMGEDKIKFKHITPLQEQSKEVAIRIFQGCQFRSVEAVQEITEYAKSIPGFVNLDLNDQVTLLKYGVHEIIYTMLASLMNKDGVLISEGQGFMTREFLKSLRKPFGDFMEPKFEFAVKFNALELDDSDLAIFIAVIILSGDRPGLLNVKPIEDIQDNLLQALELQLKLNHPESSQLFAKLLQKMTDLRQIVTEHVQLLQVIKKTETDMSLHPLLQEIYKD
Protocol: as §1
as §2, with “OPTI-MEM I Reduced Serum Medium was purchased from GIBCO (Cat. No. 31985).” left out

[1] = tested on: differentiated THP-1 monocytes; details: cited from earlier work

Row | Compound | EC50 (PPAR alpha) [nM] | EC50 (PPAR delta) [nM] | EC50 (PPAR gamma) [µM] | ABCA1 mRNA expression [1] | cholesterol efflux [1]
1 | Cc1cc(OCc2nc(-c3ccc(C(F)(F)F)c(F)c3)ns2)ccc1OC(C)(C)C(=O)O [Compound 21, 2-{4-[3-(3-Fluoro-4-trifluoromethyl-phenyl)-[1,2,4]thiadiazol-5-ylmethoxy]-2-methyl-phenoxy}-2-methyl-propionic acid] | 85 | 3 | > 3 |  | 
2 | Cc1cc(OCc2nc(-c3ccc(OC(F)(F)F)c(Cl)c3)ns2)ccc1OC(C)(C)C(=O)O [Compound 25] | 96.8 | 13 | > 3 |  | 
3 | Cc1cc(OCc2nc(-c3ccc(Cl)c(Cl)c3)ns2)ccc1OC(C)(C)C(=O)O [Compound 26, 2-{4-[3-(3,4-Dichloro-phenyl)-[1,2,4]thiadiazol-5-ylmethoxy]-2-methyl-phenoxy}-2-methyl-propionic acid] | 504 | 114 | > 3 |  | 
4 | Cc1cc(SCc2nc(-c3ccc(OC(F)(F)F)c(Cl)c3)ns2)ccc1OC(C)(C)C(=O)O [Compound 8, 2-{4-[3-(3-Chloro-4-trifluoromethoxy-phenyl)-[1,2,4]thiadiazol-5-ylmethylsulfanyl]-2-methyl-phenoxy}-2-methyl-propionic acid] | 28 | 2.8 | > 3 |  | 
5 | Cc1cc(SCc2nc(-c3ccc(C(C)(C)C)cc3)ns2)ccc1OC(C)(C)C(=O)O [Compound 6, 2-{4-[3-(4-tert-Butyl-phenyl)-[1,2,4]thiadiazol-5-ylmethylsulfanyl]-2-methyl-phenoxy}-2-methyl-propionic acid] | 64 | 93 | > 3 |  | 
6 | Cc1ccc(-c2nsc(COc3ccc(OC(C)(C)C(=O)O)c(C)c3)n2)cc1C [Compound 22, 2-{4-[3-(3,4-Dimethyl-phenyl)-[1,2,4]thiadiazol-5-ylmethoxy]-2-methyl-phenoxy}-2-methyl-propionic acid] | 643 | 534 | > 3 |  | 
7 | Cc1cc(SCc2nc(-c3ccc(Cl)cc3)ns2)ccc1OC(C)(C)C(=O)O [Compound 7, 2-{4-[3-(4-Chloro-phenyl)-[1,2,4]thiadiazol-5-ylmethylsulfanyl]-2-methyl-phenoxy}-2-methyl-propionic acid] | 186 | 18 | > 3 |  | 
8 | Cc1cc(SCc2sc(-c3ccc(C(F)(F)F)cc3)nc2C)ccc1OCC(=O)O [GW501516] |  |  |  | induced | enhanced
9 | Cc1cc(SCc2nsc(-c3ccc(C(F)(F)F)cc3)n2)ccc1OC(C)(C)C(=O)O [Compound 16, 2-Methyl-2-{2-methyl-4-[5-(4-trifluoromethyl-phenyl)-[1,2,4]thiadiazol-3-ylmethylsulfanyl]-phenoxy}-propionic acid] | 425 | 26 | > 3 |  | 

Continued, in another order:

Row | EC50 (PPAR alpha) [nM] | EC50 (PPAR delta) [nM] | EC50 (PPAR gamma) [µM] | Compound | ABCA1 mRNA expression [1] | cholesterol efflux [1]
10 | 736 | > 1000 | > 3 | Cc1cc(SCc2nc(-c3ccc(OC(F)(F)F)cc3)ns2)ccc1OC1(C(=O)O)CCCC1 [Compound 14, 1-{2-Methyl-4-[3-(4-trifluoromethoxy-phenyl)-[1,2,4]thiadiazol-5-ylmethylsulfanyl]-phenoxy}-cyclopentanecarboxylic acid] |  | 
11 | 123 | 9.3 | > 1 | Cc1cc(SCCc2nc(-c3ccc(Cl)c(Cl)c3)ns2)ccc1OC(C)(C)C(=O)O [Compound 27, 2-(4-{2-[3-(3,4-Dichloro-phenyl)-[1,2,4]thiadiazol-5-yl]-ethylsulfanyl}-2-methyl-phenoxy)-2-methyl-propionic acid] |  | 
12 | 476 | 102 | > 3 | Cc1cc(SCc2nc(-c3ccc(Cl)cc3Cl)ns2)ccc1OC(C)(C)C(=O)O [Compound 10, 2-{4-[3-(2,4-Dichloro-phenyl)-[1,2,4]thiadiazol-5-ylmethylsulfanyl]-2-methyl-phenoxy}-2-methyl-propionic acid] |  | 
13 | 68 | 27 | 0.669 | Cc1ccc(-c2nsc(CSc3ccc(OC(C)(C)C(=O)O)c(C)c3)n2)cc1Cl [Compound 12, 2-{4-[3-(3-Chloro-4-methyl-phenyl)-[1,2,4]thiadiazol-5-ylmethylsulfanyl]-2-methyl-phenoxy}-2-methyl-propionic acid] |  | 
14 | > 3000 | > 1000 | > 3 | Cc1cc(SCc2nc(-c3ccc(Cl)c(Cl)c3)ns2)ccc1OC1(C(=O)O)CCCC1 [Compound 15, 1-{4-[3-(3,4-Dichloro-phenyl)-[1,2,4]thiadiazol-5-ylmethylsulfanyl]-2-methyl-phenoxy}-cyclopentanecarboxylic acid] |  | 
